Experimental data: US9029414B2, “Triterpenoid compounds and methods of use thereof” (Biotechnology Research Corporation, priority 2008, dated 2015)

Assays:
EP1 receptor [1] = target: T1, EP1 receptor (Homo sapiens, UniProt P34995); experiment: Radioligand competition binding assay, EP1; details: EP1, target PGE2; compound at 10 μM in duplicate; read-out: % inhibition of control specific binding
T1 sequence (P34995 1-402): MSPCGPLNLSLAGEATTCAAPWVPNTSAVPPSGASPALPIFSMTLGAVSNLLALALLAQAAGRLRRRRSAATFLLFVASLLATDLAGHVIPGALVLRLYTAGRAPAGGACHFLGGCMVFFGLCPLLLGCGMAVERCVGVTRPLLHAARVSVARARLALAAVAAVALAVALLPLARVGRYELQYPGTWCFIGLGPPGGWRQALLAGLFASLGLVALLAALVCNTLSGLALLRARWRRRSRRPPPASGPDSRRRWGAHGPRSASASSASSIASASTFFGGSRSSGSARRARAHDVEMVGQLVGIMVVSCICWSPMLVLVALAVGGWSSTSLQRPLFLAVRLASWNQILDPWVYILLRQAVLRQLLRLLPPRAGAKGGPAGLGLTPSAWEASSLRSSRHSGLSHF
Description: (§1) DA001 was further evaluated against 32 receptor binding assays. Radioligand competition assays were conducted whereby DA001 was tested at one concentration (10 uM) in duplicate. […] It could compete with the radioligand [^3H] PGE2 binding at the EP1 and EP4 receptors, and weakly competed with the EP2 and FP receptors.
(§2) To determine the targets of DA compounds, the compound was assessed in binding assays for the family of prostanoid receptors. Both compounds were tested at a single concentration (10 μM) in duplicate. DA001 and DA021 inhibit the ligand binding of prostaglandin E2 receptors EP1, EP2 and EP4 and moderately to prostaglandin (PGF) to its receptor (FP), but not prostaglandin I (PGI2), thromoboxane A and prostaglandin D2 to their receptors.

IP receptor = IP receptor (Homo sapiens, UniProt P43119); experiment: Radioligand competition binding assay, IP; details: target PGI, compound at 10 μM in duplicate, read-out: % inhibition of control specific binding
Chain of IP receptor (P43119 whole entry): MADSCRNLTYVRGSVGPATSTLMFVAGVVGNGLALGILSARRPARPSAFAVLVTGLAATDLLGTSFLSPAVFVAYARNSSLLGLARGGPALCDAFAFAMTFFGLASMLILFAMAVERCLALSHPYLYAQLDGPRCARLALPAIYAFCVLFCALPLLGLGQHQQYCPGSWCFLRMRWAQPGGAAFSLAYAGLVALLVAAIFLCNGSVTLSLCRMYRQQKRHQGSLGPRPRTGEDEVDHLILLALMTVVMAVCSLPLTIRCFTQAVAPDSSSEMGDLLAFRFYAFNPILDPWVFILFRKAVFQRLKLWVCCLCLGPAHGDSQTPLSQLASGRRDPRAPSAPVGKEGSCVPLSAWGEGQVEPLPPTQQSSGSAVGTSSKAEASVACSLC
Description: as §1, §2

[2] = test system: lymphocyte infiltrates in spinal cord of EAE mice; experiment: Hematoxylin and eosin staining of spinal cords of EAE mice; type: in vivo; details: DA001-treated vs vehicle-treated EAE mice
Description: On day 21, animals were anesthetized intraperitoneally with 4% (w/v) chloral hydrate (BDH) in 0.9% (w/v) saline (USB). Once the anesthetics has set it, the animals were then perfused transcardially (Gilson) with 50 mL of 37° C., 0.005% (w/v) heparinized (Sigma) saline (USB), followed by 80 mL of ice-cold, 4% (w/v) paraformaldehyde (Sigma) in Dulbecco's Phosphate Buffered Saline (GIBCO). The perfused spinal cords were then further fixed in 4% (w/v) paraformaldehyde (Sigma) overnight at 4° C. After overnight incubation, the samples were prepared in an automated tissue processor for dehydration, clearing and paraffin infiltration (Leica EG1150H) followed by paraffin embedding (Leica RM2255). After overnight incubation at room temperature, the blocks were sectioned at 6 μm thickness on microtome (Leica 1250) and laid on Histobond slides (Merienfeld). The slides were incubated at 60 C oven for 24 h before being stained. On the day of staining, the slides were rehydrated in a series of EtOH solutions. The rehydrated slides were then submerged in hematoxyline solution for 20 min at room temperature. The slides were differentiated in acidic solution before being fixed in a series of EtOH solutions then eosin at 20 min in room temperature. […]

EP1 receptor [3] = target: T1, EP1 receptor; experiment: Cellular receptor functional assay (cAMP), EP1; type: cell-based; parameters: expressed in transfected cells; host or cells: CHO cells; details: for Antagonist effect, cAMP measurement: in presence of PGE2
Description: To determine whether the inhibitory effect of DA001 on the ligand binding to EP receptors results from agonist or antagonist activity, DA001 was evaluated at a single concentration (10 μM) on cellular-specific receptor functional assays. Upon ligand binding, the EP receptors are activated which leads to an increase in intracellular cyclic AMP.
DA001 (10 μM) was subjected to ligand binding assay with the human EP1 or EP4 receptor over-expressing CHO cells. Results are expressed as a percent of control specific agonist response [100-(measured specific response/control specific agonist response)×100] obtained in the presence of DA001.
DA021 inhibits PGE2 ligand binding to EP1, EP2 and EP4 receptors. To determine whether the inhibitory effect is due to agonist or antagonist activity, DA021 was evaluated and compared at 1 concentration (30 uM) in cellular assays assessing receptor function. Upon ligand binding, the EP receptors are activated which leads to an increase in intracellular cyclic AMP.

| SMILES | inhibition at 10 µM (EP1 receptor [1]) | inhibition at 10 µM (IP receptor) | lymphocytes surrounding axons / lymphocyte infiltration in spinal cord (H&E) [2] | Antagonist effect, cAMP measurement (EP1 receptor [3]; 10 μM) | Agonist effect, cAMP measurement (EP1 receptor [3]; 10 μM, percent of control specific agonist response) | Agonist effect, cAMP measurement (EP1 receptor [3]; 30 uM) | Antagonist effect, cAMP measurement (EP1 receptor [3]; 30 uM) |
| --- | --- | --- | --- | --- | --- | --- | --- |
| C=C(C)[C@@H]1CC[C@]2(C(=O)O)CC[C@]3(C)C(CC[C@@H]4[C@@]5(C)CC[C@H](O[C@@H]6OC[C@H](O)[C@H](O)[C@H]6O[C@@H]6O[C@@H](C)[C@H](O)[C@@H](O)[C@H]6O)[C@@](C)(CO)[C@@H]5CC[C@]43C)[C@@H]12 (stereo partly drawn) [DA001, 3-O-[α-L-rhamnopyranosyl-(1→2)-α-L-arabinopyranosyl]-3,23-dihydroxy-20(29)-lupen-28-oic acid] | 52% | 0% | dramatically reduced | 38% | 8.1% |  |  |
| C=C(C)[C@@H]1CC[C@]2(/C=N/O)CC[C@]3(C)C(CCC4[C@@]5(C)CCC(=O)[C@@](C)(CO)[C@@H]5CC[C@]43C)C12 (stereo partly drawn) [DA021] | 31% | 9% |  |  |  | 9 | 87 |
